Where a name gives a salt, the structure may show the parent alone. Where only a bound is given, the exact number is not on record here.

In one assay the test system is F-2,6-P2 in PANC-1 cells. In words: Quantification of F-2,6-P2 (Van Schaftingen coupled enzyme assay) in PANC-1 cells. Type of assay: cell-based, human. The note with it: Homo sapiens; PANC-1 cells; read-out: IC50 based on quantification of F-2,6-P2. The text has this: A method for quantification of F-2,6-P2 has been described by Van Schaftingen et al. (1982) Eur. J. Biochem. 129, 191-5. This sensitive assay is based on the potent activation of pyrophosphate dependent phosphofructokinase-1 (PPi-PFK) from potato tubers by F-2,6-P2. The use of a series of coupled enzymes leads to a consumption of NADH (nicotinamide adenine dinucleotide) that can be followed spectrophotometrically (an updated protocol is available in Van Schaftingen, (1984) Methods of Enzymatic Analysis (Bergmeyer, H. U., ed.), 3rd edn., vol. 6, pp. 335-341, Verlag Chemie, Weinheim). A protocol for measurements in 96-well microtiter plate format is also available (Bruni et al., (1989) Anal. Biochem. 178, 324-6).
The levels of F-2,6-P2 have been determined using the van Shaftingen assay as described in the protocol below, in six different cancer cell lines endogenously expressing varying levels of the different isoforms of PFK-2/BPase-2 (MCF-7, PANC-1, NUGC-3, SW480, SW620 and MIA PaCa-2). All reagents were purchased from commercial sources or prepared in-house.
Cell line B (PANC-1, human pancreatic carcinoma cell line): PANC-1 cells (ATCC-CRL-1469), lot. no. 58564651. Cells were seeded at a concentration of ˜250 000 cells/mL in 100 μL growth medium (˜25 000 cells/well).
Growth medium (cell lines B-F): Dulbecco's Modified Eagle's Medium, DMEM, VWR, LONZ12-604F; 10% FBS, Invitrogen, 10270-106.
Starvation medium (cell lines A-F): DMEM/F12 without phenol red and glucose free, SVA, 991373; 0.25% FBS, Invitrogen, 10270-106.
Induction medium (cell lines A-F): DMEM/F12 without phenol red and glucose free, SVA, 991373; 0.25% FBS, Invitrogen, 10270-106 (same as starvation medium).
Cells were seeded in 96-well Corning Costar tissue culture plates (CLS3595, Sigma-Aldrich) using the concentrations specified above for the different cell lines A-F and incubated over night at 37° C. and 5% CO2. Row A in the plate was left empty and the cell lines added to rows B-H. Next day the growth medium was discarded and replaced with 100 μL starvation medium. The plates were incubated for 18 h at 37° C. and 5% CO2. After 18 h of starvation the cells were induced with 100 μL compound or control solutions. Compounds were either tested in two concentrations (50 μM and 10 μM) or in dose response curves starting from 50 μM. The final DMSO concentration in assay plates was 0.5%. Also a dose response curve of a reference inhibitor was included in row H on each plate. All compounds were tested in duplicate plates. Compounds (in 96 well CLS 3365, Sigma-Aldrich plates) were serial diluted in DMSO from 10 mM compound DMSO stock solutions with Janus (automated liquid handling workstation from PerkinElmer). Five μL were transferred to a Greiner deep well plate (736-0155, VWR) with 495 μL starvation medium. The final start concentration of compounds in the dilution plate was 100 μM, 1% DMSO. For compounds tested as single points, 10 mM compound solutions were diluted five fold in DMSO to 2 mM, followed by the transfer of 5 μL to separate dilution plates with 495 μL starvation medium. The final concentrations of compounds in these dilution plates were 100 or 20 μM, respectively, and final concentration of DMSO was 1%. The plates were incubated at 37° C. and 5% CO2 for 1 h, followed by the addition of 10 μL 20 mM D-glucose in starvation medium. Controls, with and without 1 mM glucose, were included in row B. The final assay volume was 210 μL per well. After 2 h of incubation at 37° C. and 5% CO2, the supernatants were discarded and the cells lysed by the addition of 25 μL 250 mM NaOH. The plates were incubated at 37° C. and 5% CO2 for 5 min followed by an addition of 75 μL MilliQ dH2O. The supernatants were further diluted with 210 μL MilliQ dH2O to a final concentration of 20 mM NaOH. 200 μL were transferred to NUNC 96-well plates (7322661, VWR) and the plates were sealed and stored at −20° C. until analysis. […]
Take `COC(=O)c1ccc(NS(=O)(=O)c2cc(Cl)c(-c3ccccc3O)s2)cc1O` [Example 206, Methyl 4-({[4-chloro-5-(2-hydroxyphenyl)thiophen-2-yl]sulfonyl}amino)-2-hydroxybenzoate]: the IC50 turned out to be 8.9 µM.

In the case of `O=C(OC1CCOC1)c1ccc(NS(=O)(=O)c2cc(Cl)sc2Cl)cc1O` (stereo not shown) [Example 67, Tetrahydrofuran-3-yl 4-{[(2,5-dichloro-3-thienyl)sulfonyl]amino}-2-hydroxybenzoate], the IC50 was found to be 5.2 µM.

Regarding `COC(=O)c1ccc(NS(=O)(=O)c2cccc(Br)c2)cc1O` [Example 5, Methyl 4-{[(3-bromophenyl)sulfonyl]amino}-2-hydroxybenzoate], the IC50 was determined as 12.3 µM.

Consider `COC(=O)c1ccc(NS(=O)(=O)c2c(Cl)sc(Cl)c2C)cc1O` [Example 53, Methyl 4-{[(2,5-dichloro-4-methyl-3-thienyl)sulfonyl]amino}-2-hydroxybenzoate], for which the IC50 came to 3.1 µM.

`COC(=O)c1ccc(NS(=O)(=O)c2ccc(F)c3ccccc23)cc1O` [Example 33, Methyl 4-{[(4-fluoro-1-naphthyl)sulfonyl]amino}-2-hydroxybenzoate]: the half-inhibitory concentration (IC50) was 3.6 µM.

Consider `O=C(OCCCN1CCOCC1)c1ccc(NS(=O)(=O)c2cc(Cl)cc(Cl)c2)cc1O` [Example 187, 3-Morpholin-4-ylpropyl 4-{[(3,5-dichlorophenyl)sulfonyl]amino}-2-hydroxybenzoate trifluoroacetate], for which the IC50 came out at 6.8 µM.

Take `COC(=O)c1ccc(NS(=O)(=O)Cc2cccc(-c3ccc4c(c3)CCO4)c2)cc1O` [Example 122, Methyl 4-({[3-(2,3-dihydro-1-benzofuran-5-yl)benzyl]sulfonyl}amino)-2-hydroxybenzoate]: the IC50 turned out to be 5.9 µM.

Turning to `COC(=O)c1ccc(NS(=O)(=O)c2cccc(N3CCCCC3)c2)cc1O` [Example 142, Methyl 2-hydroxy-4-({[3-(piperidin-1-yl)phenyl]sulfonyl}amino)benzoate], the IC50 was 1.5 µM.

Take `COC(=O)c1ccc(NS(=O)(=O)c2scc(Br)c2Br)cc1O` [Example 57, Methyl 4-{[(3,4-dibromothiophen-2-yl)sulfonyl]amino}-2-hydroxybenzoate]: the IC50 was found to be 5.7 µM.

Take `O=C(OCCCN1CCOCC1)c1ccc(NS(=O)(=O)c2cc(-c3cc(F)ccc3O)c(Cl)s2)cc1O` [Example 213, 3-Morpholin-4-ylpropyl 4-({[5-chloro-4-(5-fluoro-2-hydroxyphenyl)-2-thienyl]sulfonyl}amino)-2-hydroxybenzoate trifluoroacetate]: the IC50 turned out to be 0.6 µM.

Regarding `COC(=O)c1ccc(NS(=O)(=O)c2cccc(-c3ccncc3)c2)cc1O` [Example 89, Methyl 2-hydroxy-4-{[(3-pyridin-4-ylphenyl)sulfonyl]amino}benzoate trifluoroacetate], the IC50 amounted to 6.7 µM.

In the case of `COC(=O)c1ccc(NS(=O)(=O)c2cccc(-c3ccc4ncccc4c3)c2)cc1O` [Example 91, Methyl 2-hydroxy-4-{[(3-quinolin-6-ylphenyl)sulfonyl]amino}benzoate trifluoroacetate], the half-maximal inhibitory concentration (IC50) turned out to be 4.5 µM.

As to `O=C(OCc1ccccc1)c1ccc(NS(=O)(=O)c2cc(Cl)c(Cl)s2)cc1O` [Example 71, Benzyl 4-{[(4,5-dichloro-2-thienyl)sulfonyl]amino}-2-hydroxybenzoate], the IC50 turned out to be 0.8 µM.

On to `CCCCOC(=O)c1ccc(NS(=O)(=O)c2cc(Cl)c(Cl)s2)cc1O` [Example 70, Butyl 4-{[(4,5-dichloro-2-thienyl)sulfonyl]amino}-2-hydroxybenzoate], for which the IC50 worked out at 0.2 µM.

As to `O=C(OCCO)c1ccc(NS(=O)(=O)c2cc(-c3ccccc3)c(Cl)s2)cc1O` [Example 217, 2-Hydroxyethyl 4-{[(5-chloro-4-phenyl-2-thienyl)sulfonyl]amino}-2-hydroxybenzoate], the concentration for half-maximal inhibition (IC50) was determined as 1.4 µM.

Take `O=C(OC1CCN(Cc2ccccc2)C1)c1ccc(NS(=O)(=O)c2c(Cl)sc(Cl)c2Cl)cc1O` (stereo not shown) [Example 204, 1-Benzylpyrrolidin-3-yl 2-hydroxy-4-{[(2,4,5-trichloro-3-thienyl)sulfonyl]amino}benzoate]: the IC50 was 1.8 µM.

For `COC(=O)c1ccc(NS(=O)(=O)c2ccc(-c3cc(F)ccc3F)s2)cc1O` [Example 118, Methyl 4-({[5-(2,5-difluorophenyl)thiophen-2-yl]sulfonyl}amino)-2-hydroxybenzoate], the IC50 amounted to 2 µM.

`COC(=O)c1ccc(NS(=O)(=O)c2cc(C(F)(F)F)oc2C)cc1O` [Example 10, Methyl 2-hydroxy-4-({[2-methyl-5-(trifluoromethyl)furan-3-yl]sulfonyl}amino)benzoate]: the IC50 stood at 6.7 µM.

Take `COCCOC(=O)c1ccc(NS(=O)(=O)c2cc(-c3ccccc3O)c(Cl)s2)cc1O` [Example 133, 2-Methoxyethyl 4-({[5-chloro-4-(2-hydroxyphenyl)-2-thienyl]sulfonyl}amino)-2-hydroxybenzoate]: the concentration for half-maximal inhibition (IC50) was 1.2 µM.

As to `CCOCCOC(=O)c1ccc(NS(=O)(=O)c2cc(Cl)sc2Cl)cc1O` [Example 66, 2-Ethoxyethyl 4-{[(2,5-dichloro-3-thienyl)sulfonyl]amino}-2-hydroxybenzoate], the IC50 was 5.7 µM.

Consider `COCCOC(=O)c1ccc(NS(=O)(=O)c2c(Cl)sc(Cl)c2Br)cc1O` [Example 197, 2-Methoxyethyl 4-{[(4-bromo-2,5-dichlorothiophen-3-yl)sulfonyl]amino}-2-hydroxybenzoate], for which the IC50 is 3.5 µM.

The same assay, now with this note: at 12.5-50 μM in PANC-1 cells.
Take `COC(=O)c1cccc(-c2cc(S(=O)(=O)Nc3ccc(C(=O)OC)c(O)c3)sc2Cl)c1` [Example 77, Methyl 4-[({5-chloro-4-[3-(methoxycarbonyl)phenyl]thiophen-2-yl}sulfonyl)amino]-2-hydroxybenzoate]: the “inhibition (F-2,6-P2 levels)” value is at least 50%.

Turning to `COCc1cccc(OCCOC(=O)c2ccc(NS(=O)(=O)c3cc(Cl)c(Cl)s3)cc2O)c1` [Example 227, 2-[3-(Methoxymethyl)phenoxy]ethyl 4-{[(4,5-dichloro-2-thienyl)sulfonyl]amino}-2-hydroxybenzoate], the “inhibition (F-2,6-P2 levels)” value is at least 50%.

Regarding `COC(=O)c1ccc(NS(=O)(=O)c2cccc(OC)c2)cc1O` [Example 121, Methyl 2-hydroxy-4-{[(3-methoxyphenyl)sulfonyl]amino}benzoate], the “inhibition (F-2,6-P2 levels)” value is at least 50%.

As to `COC(=O)c1ccc(NS(=O)(=O)c2cncc(-c3cccc(OC)c3F)c2)cc1O` [Example 130, Methyl 4-({[5-(2-fluoro-3-methoxyphenyl)pyridin-3-yl]sulfonyl}amino)-2-hydroxybenzoate], the “inhibition (F-2,6-P2 levels)” value is on record as at least 50%.

As to `COC(=O)c1ccc(NS(=O)(=O)c2ccc(Cl)cc2)cc1O` [Example 42, Methyl 4-{[(4-chlorophenyl)sulfonyl]amino}-2-hydroxybenzoate], the “inhibition (F-2,6-P2 levels)” value is at least 50%.

For the compound `COC(=O)c1ccc(NS(=O)(=O)c2ccc(C(C)(C)C)cc2)cc1O` [Example 36, Methyl 4-{[(4-tert-butylphenyl)sulfonyl]amino}-2-hydroxybenzoate], the “inhibition (F-2,6-P2 levels)” value is at least 50%.

Consider `COC(=O)c1ccc(NS(=O)(=O)c2cccc(-c3ccc(SC)cc3)c2)cc1O` [Example 98, Methyl 2-hydroxy-4-({[4′-(methylsulfanyl)biphenyl-3-yl]sulfonyl}amino)benzoate], for which the “inhibition (F-2,6-P2 levels)” value was at least 50%.

By IC50 is commonly meant the concentration needed to halve the response being measured.
